From the supplement of paper PMC11208160

Experiment: recombinant UMI read abundance after kanamycin selection (control-corrected) (log10(CPM+1)); higher = more efficient recombination; extreme values may be limits of the assay; sequences stand for … in AGTGCAGAGAAAATCGGCCAGTTTTCTCTGCCTGCAGTCCGCATGCCGTGGGACCCCTTGGGTTCTAACCTGTTGCCTAGATTTATGCAGCGGACTGCCTTTCTCCCAAAGTGATAAACCGG…AGGTTGGTTTCACT; site = the 11-nt donor
Procedure, shortened: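 In Escherichia coli, a pool of donor and donor-binding-loop pairs, each with a 12-nt UMI, was tested for the IS621 bridge recombinase. Plating was on IPTG (0.07 mM) plus kanamycin, or without selection, in two replicates. Recombinant UMIs were amplified by PCR across the donor–target junction and sequenced, and counts were reported as log10(CPM+1) after averaging and control-derived scaling.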
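Note: IS621 bridge recombinase in Escherichia coli cells against a fixed T5 target plasmid.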

Sequence | recombinant UMI read abundance (log10)
TTGCTGTCATGGACCGGTTTTCCCGGTAATCCGTATTTGAT (site TTGCTGTCTAT) | 0.00531
TTGGAATCATGGACCGGTTTTCCCGGTAATCCGTATTTGCA (site TTGGAATCTTG) | 2.76
TTGGCACCATGGACCGGTTTTCCCGGTAATCCGTATTTGAG (site TTGGCACCTCT) | 0.0325
TTGGCGGCATGGACCGGTTTTCCCGGTAATCCGTATTTGCT (site TTAGCGGCTAG) | 1.3
TTGGCGGCATGGACCGGTTTTCCCGGTAATCCGTATTTGCT (site TTCGCGGCTAG) | 0
TTGGCGGCATGGACCGGTTTTCCCGGTAATCCGTATTTGCT (site TTGGCGGCTAG) | 1.44
TTGGCGGCATGGACCGGTTTTCCCGGTAATCCGTATTTGCT (site TTTGCGGCTAG) | 0.00953
TTGGGTGCATGGACCGGTTTTCCCGGTAATCCGTATTTGAT (site TTGGGTGCTAT) | 1.6
TTGGTTTCATGGACCGGTTTTCCCGGTAATCCGTATTTGTT (site TTGGTTTCTAA) | 0.417
TTGTAGACATGGACCGGTTTTCCCGGTAATCCGTATTTGCA (site TTGTAGACTTG) | 1.87
TTGTCTACATGGACCGGTTTTCCCGGTAATCCGTATTTGCG (site TTGTCTACTCG) | 0.0108
TTGTGACCATGGACCGGTTTTCCCGGTAATCCGTATTTGAT (site TTGTGACCTAT) | 0.00587
TTGTGAGCATGGACCGGTTTTCCCGGTAATCCGTATTTGGT (site TTGTGAGCTAC) | 0.701
TTGTTCCCATGGACCGGTTTTCCCGGTAATCCGTATTTGTG (site TTGTTCCCTCA) | 0.187
TTTAATTCATGGACCGGTTTTCCCGGTAATCCGTATTTGCA (site TTTAATTCTTG) | 0
TTTAATTCATGGACCGGTTTTCCCGGTAATCCGTATTTGGG (site TTTAATTCTCC) | 1.33
TTTATTACATGGACCGGTTTTCCCGGTAATCCGTATTTGGT (site TTTATTACTAC) | 0.0132
TTTATTCCATGGACCGGTTTTCCCGGTAATCCGTATTTGAC (site TTTATTCCTGT) | 0
TTTCAGACATGGACCGGTTTTCCCGGTAATCCGTATTTGTT (site TTTCAGACTAA) | 0.004

Sequence | recombinant UMI read abundance (log10)
TTTCCAACATGGACCGGTTTTCCCGGTAATCCGTATTTGAA (site TTTCCAACTTT) | 0.0166
TTTCCCGCATGGACCGGTTTTCCCGGTAATCCGTATTTGTC (site TTTCCCGCTGA) | 1.42
TTTCCGGCATGGACCGGTTTTCCCGGTAATCCGTATTTGCT (site TTTACGGCTAG) | 0.0335
TTTCCGGCATGGACCGGTTTTCCCGGTAATCCGTATTTGCT (site TTTCCGGCTAG) | 0.016
TTTCCGGCATGGACCGGTTTTCCCGGTAATCCGTATTTGCT (site TTTGCGGCTAG) | 0.00591
TTTCCGGCATGGACCGGTTTTCCCGGTAATCCGTATTTGCT (site TTTTCGGCTAG) | 0.0123
TTTCTAGCATGGACCGGTTTTCCCGGTAATCCGTATTTGAC (site TTTCTAGCTGT) | 0.582
TTTCTGTCATGGACCGGTTTTCCCGGTAATCCGTATTTGAA (site TTTCTGTCTTT) | 0.0118
TTTGCCTCATGGACCGGTTTTCCCGGTAATCCGTATTTGCC (site TTTGCCTCTGG) | 1.48
TTTGCGGCATGGACCGGTTTTCCCGGTAATCCGTATTTGAT (site TTTGCGGCTAA) | 0.015
TTTGCGGCATGGACCGGTTTTCCCGGTAATCCGTATTTGAT (site TTTGCGGCTAC) | 0.00828
TTTGCGGCATGGACCGGTTTTCCCGGTAATCCGTATTTGAT (site TTTGCGGCTAG) | 0
TTTGCGGCATGGACCGGTTTTCCCGGTAATCCGTATTTGAT (site TTTGCGGCTAT) | 0.414
TTTGCGGCATGGACCGGTTTTCCCGGTAATCCGTATTTGCT (site ATTGCGGCTAG) | 0.00696
TTTGCGGCATGGACCGGTTTTCCCGGTAATCCGTATTTGCT (site CTTGCGGCTAG) | 0.00458
TTTGCGGCATGGACCGGTTTTCCCGGTAATCCGTATTTGCT (site GTTGCGGCTAG) | 0.00615
TTTGCGGCATGGACCGGTTTTCCCGGTAATCCGTATTTGCT (site TATGCGGCTAG) | 0.00481
TTTGCGGCATGGACCGGTTTTCCCGGTAATCCGTATTTGCT (site TCTGCGGCTAG) | 0
TTTGCGGCATGGACCGGTTTTCCCGGTAATCCGTATTTGCT (site TGTGCGGCTAG) | 0.0128

Sequence | recombinant UMI read abundance (log10)
TTTGCGGCATGGACCGGTTTTCCCGGTAATCCGTATTTGCT (site TTAGCGGCTAG) | 0.486
TTTGCGGCATGGACCGGTTTTCCCGGTAATCCGTATTTGCT (site TTCGCGGCTAG) | 0
TTTGCGGCATGGACCGGTTTTCCCGGTAATCCGTATTTGCT (site TTGGCGGCTAG) | 0.0258
TTTGCGGCATGGACCGGTTTTCCCGGTAATCCGTATTTGCT (site TTTACGGCTAG) | 0.658
TTTGCGGCATGGACCGGTTTTCCCGGTAATCCGTATTTGCT (site TTTCCGGCTAG) | 0.0114
TTTGCGGCATGGACCGGTTTTCCCGGTAATCCGTATTTGCT (site TTTGAGGCTAG) | 0.00621
TTTGCGGCATGGACCGGTTTTCCCGGTAATCCGTATTTGCT (site TTTGCAGCTAG) | 0.0183
TTTGCGGCATGGACCGGTTTTCCCGGTAATCCGTATTTGCT (site TTTGCCGCTAG) | 0.00324
TTTGCGGCATGGACCGGTTTTCCCGGTAATCCGTATTTGCT (site TTTGCGACTAG) | 0
TTTGCGGCATGGACCGGTTTTCCCGGTAATCCGTATTTGCT (site TTTGCGCCTAG) | 0.00251
TTTGCGGCATGGACCGGTTTTCCCGGTAATCCGTATTTGCT (site TTTGCGGCTAA) | 0.0285
TTTGCGGCATGGACCGGTTTTCCCGGTAATCCGTATTTGCT (site TTTGCGGCTAC) | 0.0071
TTTGCGGCATGGACCGGTTTTCCCGGTAATCCGTATTTGCT (site TTTGCGGCTAG) | 0.75
TTTGCGGCATGGACCGGTTTTCCCGGTAATCCGTATTTGCT (site TTTGCGGCTAT) | 0.0119
TTTGCGGCATGGACCGGTTTTCCCGGTAATCCGTATTTGCT (site TTTGCGGCTCG) | 0.0133
TTTGCGGCATGGACCGGTTTTCCCGGTAATCCGTATTTGCT (site TTTGCGGCTGG) | 0
TTTGCGGCATGGACCGGTTTTCCCGGTAATCCGTATTTGCT (site TTTGCGGCTTG) | 0.00988
TTTGCGGCATGGACCGGTTTTCCCGGTAATCCGTATTTGCT (site TTTGCGTCTAG) | 0.00651
TTTGCGGCATGGACCGGTTTTCCCGGTAATCCGTATTTGCT (site TTTGCTGCTAG) | 0
